Results as given in patent US20220112187A1, “PYRAZOLOPYRIDINE AMINE COMPOUNDS FOR THE TREATMENT OF AUTOIMMUNE DISEASE” (Hoffmann-La Roche Inc., priority 2018, published 2022).

Molecular target: T1, human TLR9 (Homo sapiens, UniProt Q9NR96)
T1 sequence (Q9NR96 26-1032): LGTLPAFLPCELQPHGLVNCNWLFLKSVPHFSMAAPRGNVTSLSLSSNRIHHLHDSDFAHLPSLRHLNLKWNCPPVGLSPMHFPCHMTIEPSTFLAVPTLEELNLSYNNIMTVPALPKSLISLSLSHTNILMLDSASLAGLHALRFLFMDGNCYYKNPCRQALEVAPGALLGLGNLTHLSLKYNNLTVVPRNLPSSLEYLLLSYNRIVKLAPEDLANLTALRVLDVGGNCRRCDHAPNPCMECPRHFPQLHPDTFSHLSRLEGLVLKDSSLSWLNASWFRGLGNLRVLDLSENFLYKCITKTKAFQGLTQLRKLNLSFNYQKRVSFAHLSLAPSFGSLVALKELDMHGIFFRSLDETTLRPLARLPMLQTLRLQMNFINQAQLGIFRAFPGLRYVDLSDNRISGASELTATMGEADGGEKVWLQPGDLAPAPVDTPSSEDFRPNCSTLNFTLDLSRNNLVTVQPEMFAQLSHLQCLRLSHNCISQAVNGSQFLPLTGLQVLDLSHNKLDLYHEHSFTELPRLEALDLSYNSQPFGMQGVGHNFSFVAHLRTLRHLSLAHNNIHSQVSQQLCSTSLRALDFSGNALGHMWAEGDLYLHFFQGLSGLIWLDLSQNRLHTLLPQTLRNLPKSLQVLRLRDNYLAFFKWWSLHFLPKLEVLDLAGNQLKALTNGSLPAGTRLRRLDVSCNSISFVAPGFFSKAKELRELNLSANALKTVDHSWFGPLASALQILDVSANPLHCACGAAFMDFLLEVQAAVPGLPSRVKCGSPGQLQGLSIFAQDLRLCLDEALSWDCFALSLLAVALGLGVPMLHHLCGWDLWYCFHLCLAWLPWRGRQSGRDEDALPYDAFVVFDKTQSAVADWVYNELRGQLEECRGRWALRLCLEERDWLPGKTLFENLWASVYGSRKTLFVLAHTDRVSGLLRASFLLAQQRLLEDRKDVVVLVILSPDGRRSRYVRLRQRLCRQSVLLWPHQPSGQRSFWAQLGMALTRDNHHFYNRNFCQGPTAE
Assay: HEK293-Blue-hTLR-9 cells assay (SEAP reporter, ODN2006 stimulation)
Type: cell-based
Settings: HEK293-Blue-hTLR9 cells, ODN2006 ligand, 20 hrs incubation
Text: A stable HEK293-Blue-hTLR-9 cell line was purchased from InvivoGen (Cat. #: hkb-htlr9, San Diego, Calif., USA). These cells were originally designed for studying the stimulation of human TLR9 by monitoring the activation of NF-κB. A SEAP (secreted embryonic alkaline phosphatase) reporter gene was placed under the control of the IFN-β minimal promoter fused to five NF-κB and AP-1-binding sites. The SEAP was induced by activating NF-κB and AP-1 via stimulating HEK-Blue hTLR9 cells with TLR9 ligands. Therefore the reporter expression was declined by TLR9 antagonist under the stimulation of a ligand, such as ODN2006 (Cat. #: tlr1-2006-1, Invivogen, San Diego, Calif., USA), for incubation of 20 hrs. The cell culture supernatant SEAP reporter activity was determined using QUANTI-Blue™ kit (Cat. #: rep-qb1, Invivogen, San Diego, Calif., USA) at a wavelength of 640 nm, a detection medium that turns purple or blue in the presence of alkaline phosphatase.
HEK293-Blue-hTLR9 cells were incubated at a density of 250,000˜450,000 cells/mL in a volume of 170 μL in a 96-well plate in Dulbecco's Modified Eagle's medium (DMEM) containing 4.5 g/L glucose, 50 U/mL penicillin, […], […], 2 mM L-glutamine, 10% (v/v) heat-inactivated fetal bovine serum with addition of 20 μL test compound in a serial dilution in the presence of final DMSO at 1% and 10 μL of 20 uM ODN2006 in above DMEM, perform incubation under 37° C. in a CO2 incubator for 20 hrs. Then 20 μL of the supernatant from each well was incubated with 180 μL Quanti-blue substrate solution at 37° C. for 2 hrs and the absorbance was read at 620-655 nm using a spectrophotorneter. The signalling pathway that TLR9 activation leads to downstream NF-κB activation has been widely accepted, and therefore similar reporter assay was modified for evaluating TLR9 antagonist.

IC50 | SMILES
110 nM | C[C@@H]1CN(c2ccc(C#N)n3ncc(F)c23)C[C@H](CN2CCCC3(CCNC3)C2)O1 (stereo partly drawn) [Example 68, 3-fluoro-4-[(2S,6R)-2-(2,7-diazaspiro[4.5]decan-7-ylmethyl)-6-methyl-morpholin-4-yl]pyrazolo[1,5-a]pyridine-7-carbonitrile]
120 nM | C[C@@H]1CN(c2ccc(C#N)n3nccc23)C[C@H](CN2CC3CCNCC3C2)O1 (stereo partly drawn) [Example 49, 4-[(2S,6R)-2-(1,3,3a,4,5,6,7,7a-octahydropyrrolo[3,4-c]pyridin-2-ylmethyl)-6-methyl-morpholin-4-yl]pyrazolo[1,5-a]pyridine-7-carbonitrile]
> 100000 nM | C[C@@H]1CN(c2ccc(C#N)n3nccc23)C[C@H](CN2CC(N)C(F)(F)C2)O1 (stereo partly drawn) [Example 35, 4-[(2S,6R)-2-[(4-amino-3,3-difluoro-pyrrolidin-1-yl)methyl]-6-methyl-morpholin-4-yl]pyrazolo[1,5-a]pyridine-7-carbonitrile]
90 nM | C[C@@H]1CN(c2ccc(C#N)n3nccc23)C[C@H](CN2CCC3(CCNCC3)CC2)O1 [Example 3, 4-[(2S,6R)-2-(3,9-diazaspiro[5.5]undecan-3-ylmethyl)-6-methyl-morpholin-4-yl]pyrazolo[1,5-a]pyridine-7-carbonitrile]
92 nM | C[C@@H]1CN(c2ccc(C#N)n3nccc23)C[C@H](CN2CCC3(CCNC3)CC2)O1 [Example 19, 4-[(2S,6R)-2-(2,8-diazaspiro[4.5]decan-8-ylmethyl)-6-methyl-morpholin-4-yl]pyrazolo[1,5-a]pyridine-7-carbonitrile]
1900 nM | C[C@@H]1CN(c2ccc(C#N)n3nccc23)C[C@H](CN2CCN[C@H](c3ccccc3)C2)O1 [Example 38, 4-[(2R,6S)-2-methyl-6-[[(3R)-3-phenylpiperazin-1-yl]methyl]morpholin-4-yl]pyrazolo[1,5-a]pyridine-7-carbonitrile]
180 nM | C[C@@H]1CN(c2ccc(C#N)n3nccc23)C[C@H](CN2CC3CNCC3C2)O1 (stereo partly drawn) [Example 22, 4-[(2S,6R)-2-(2,3,3a,4,6,6a-hexahydro-1H-pyrrolo[3,4-c]pyrrol-5-ylmethyl)-6-methyl-morpholin-4-yl]pyrazolo[1,5-a]pyridine-7-carbonitrile]
16000 nM | CC1CNCCN1C[C@H]1CN(c2ccc(C#N)n3nccc23)C[C@@H](C)O1 (single isomer, unassigned) [Example 50A]
65 nM | C[C@@H]1CN(c2ccc(C#N)n3nccc23)C[C@H](CN2CCC3(CCCNC3)CC2)O1 [Example 27, 4-[(2S,6R)-2-(2,9-diazaspiro[5.5]undecan-9-ylmethyl)-6-methyl-morpholin-4-yl]pyrazolo[1,5-a]pyridine-7-carbonitrile]
200 nM | C[C@@H]1CN(c2ccc(C#N)n3nccc23)C[C@H](CN2CCC3NCC3C2)O1 (stereo partly drawn) [Example 70, 4-[(2S,6R)-2-(3,7-diazabicyclo[4.2.0]octan-3-ylmethyl)-6-methyl-morpholin-4-yl]pyrazolo[1,5-a]pyridine-7-carbonitrile]
260 nM | C[C@@H]1CN(c2ccc(C#N)n3nccc23)C[C@H](CN2CC3CNCCC32)O1 (stereo partly drawn) [Example 52, 4-[(2S,6R)-2-(3,7-diazabicyclo[4.2.0]octan-7-ylmethyl)-6-methyl-morpholin-4-yl]pyrazolo[1,5-a]pyridine-7-carbonitrile]
23000 nM | C[C@@H]1CN(c2ccc(C#N)n3nccc23)C[C@H](CN2CCN(C)CC2)O1 [Example 15, 4-[(2R,6S)-2-methyl-6-[(4-methylpiperazin-1-yl)methyl]morpholin-4-yl]pyrazolo[1,5-a]pyridine-7-carbonitrile]
250 nM | C[C@@H]1CN(c2ccc(C#N)n3nccc23)C[C@H](CN2CCCC3(CCCNC3)C2)O1 (stereo partly drawn) [Example 23, 4-[(2S,6R)-2-(2,8-diazaspiro[5.5]undecan-2-ylmethyl)-6-methyl-morpholin-4-yl]pyrazolo[1,5-a]pyridine-7-carbonitrile]
270 nM | C[C@@H]1CN(c2ccc(C#N)n3nccc23)C[C@H](CN2CCC(CCN)CC2)O1 [Example 13, 4-[(2S,6R)-2-[[4-(2-aminoethyl)-1-piperidyl]methyl]-6-methyl-morpholin-4-yl]pyrazolo[1,5-a]pyridine-7-carbonitrile]
180 nM | C[C@@H]1CN(c2ccc(C#N)n3nccc23)C[C@H](CN2CCC3(CC2)CNCCO3)O1 [Example 60, 4-[(2R,6S)-2-methyl-6-(1-oxa-4,9-diazaspiro[5.5]undecan-9-ylmethyl)morpholin-4-yl]pyrazolo[1,5-a]pyridine-7-carbonitrile]
88 nM | C[C@@H]1CN(c2ccc(C#N)n3nccc23)C[C@H](CN2CCC3(CCCNC3)C2)O1 (stereo partly drawn) [Example 25, 4-[(2S,6R)-2-(2,9-diazaspiro[4.5]decan-2-ylmethyl)-6-methyl-morpholin-4-yl]pyrazolo[1,5-a]pyridine-7-carbonitrile]
2200 nM | C[C@@H]1CN(c2ccc(C#N)n3nccc23)C[C@H](CN2CCCC3NCCCC32)O1 (stereo partly drawn) [Example 64, 4-[(2S,6R)-2-(3,4,4a,5,6,7,8,8a-octahydro-2H-1,5-naphthyridin-1-ylmethyl)-6-methyl-morpholin-4-yl]pyrazolo[1,5-a]pyridine-7-carbonitrile]
130 nM | C[C@@H]1CN(c2ccc(C#N)n3ncc(F)c23)C[C@H](CN2CCC3(CCCNC3)C2)O1 (stereo partly drawn) [Example 69, 3-fluoro-4-[(2S,6R)-2-(2,9-diazaspiro[4.5]decan-2-ylmethyl)-6-methyl-morpholin-4-yl]pyrazolo[1,5-a]pyridine-7-carbonitrile]
220 nM | C[C@@H]1CN(c2ccc(C#N)n3nccc23)C[C@H](CN2CCC(C)(N)CC2)O1 [Example 29, 4-[(2S,6R)-2-[(4-amino-4-methyl-1-piperidyl)methyl]-6-methyl-morpholin-4-yl]pyrazolo[1,5-a]pyridine-7-carbonitrile]
890 nM | C[C@@H]1CN(c2ccc(C#N)n3nccc23)C[C@H](CN2CCNCC2)O1 [Example 5, 4-[(2R,6S)-2-methyl-6-(piperazin-1-ylmethyl)morpholin-4-yl]pyrazolo[1,5-a]pyridine-7-carbonitrile]
5900 nM | C[C@@H]1CN(c2ccc(C#N)n3nccc23)C[C@H](CN2CCC[C@@H]3NCCC32)O1 (stereo partly drawn) [Example 63, 4-[(2R,6S)-2-methyl-6-[[cis-(3aS,7aS)-1,2,3,3a,5,6,7,7a-octahydropyrrolo[3,2-b]pyridin-4-yl]methyl]morpholin-4-yl]pyrazolo[1,5-a]pyridine-7-carbonitrile]
520 nM | C[C@@H]1CN(c2ccc(C#N)n3nccc23)C[C@H](CN2CC3CCC(C2)C3N)O1 (stereo partly drawn) [Example 36, 4-[(2S,6R)-2-[(8-amino-3-azabicyclo[3.2.1]octan-3-yl)methyl]-6-methyl-morpholin-4-yl]pyrazolo[1,5-a]pyridine-7-carbonitrile]

SMILES | IC50
C[C@@H]1CN(c2ccc(C#N)n3nccc23)C[C@H](CN2C3CCC2CC(N)C3)O1 (stereo partly drawn) [Example 37, 4-[(2S,6R)-2-[(3-amino-8-azabicyclo[3.2.1]octan-8-yl)methyl]-6-methyl-morpholin-4-yl]pyrazolo[1,5-a]pyridine-7-carbonitrile] | 78 nM
C[C@@H]1CN(c2ccc(C#N)n3nccc23)C[C@H](CN2CC3CCC(C2)N3)O1 [Example 31, 4-[(2S,6R)-2-(3,8-diazabicyclo[3.2.1]octan-3-ylmethyl)-6-methyl-morpholin-4-yl]pyrazolo[1,5-a]pyridine-7-carbonitrile] | 10000 nM
